In BindingDB's records for doi:10.1016/s0960-894x(01)00323-7 (Kyoto University, 2001):

Columns and labels:
[1] = Inhibitory concentration determined on an HIV infection model mediated by CXCR4
[2] = Effective concentration for 50% protection of HIV-induced cytopathogenicity in MT-4 cells on the MTT assay
[3] = as above; remark: listed apart in the source

Row | Structure (SMILES) | IC50 [1] | EC50 [2] | EC50 [3]
1 | NCCCC[C@@H]1NC(=O)[C@H](CCCN=C(N)N)NC(=O)[C@H](Cc2ccc(O)cc2)NC(=O)[C@@H](NC(=O)[C@@H](NC(=O)[C@H](CCCN=C(N)N)NC(=O)[C@@H](N)CCCN=C(N)N)c2ccc3ccccc3c2)CSSC[C@@H](C(=O)N[C@@H](CCCN=C(N)N)C(=O)O)NC(=O)[C@H](CCCNC(N)=O)NC(=O)[C@H](CCCN=C(N)N)NC(=O)[C@H](Cc2ccc(O)cc2)NC(=O)[C@@H]2CCCN2C(=O)[C@@H](CCCNC(N)=O)NC1=O [T140] | 23 nM | 4 nM | –
2 | NCCCC[C@@H]1NC(=O)[C@H](CCCNC(N)=O)NC(=O)[C@H](Cc2ccc(O)cc2)NC(=O)[C@@H](NC(=O)[C@H](Cc2ccc3ccccc3c2)NC(=O)[C@H](CCCN=C(N)N)NC(=O)[C@@H](N)CCCNC(N)=O)CSSC[C@@H](C(=O)N[C@@H](CCCN=C(N)N)C(N)=O)NC(=O)[C@H](CCCNC(N)=O)NC(=O)[C@H](CCCN=C(N)N)NC(=O)[C@H](Cc2ccc(O)cc2)NC(=O)[C@@H]2CCCN2C(=O)[C@@H](CCCCN)NC1=O [Derivative of T140 peptide] | – | – | 6.6 nM
3 | Nc1ccn([C@H]2CC[C@@H](CO)O2)c(=O)n1 [Dideoxycytidine] | – | – | 88 nM
4 | NCCCC[C@@H]1NC(=O)[C@H](CCCNC(N)=O)NC(=O)[C@H](Cc2ccc(O)cc2)NC(=O)[C@@H](NC(=O)[C@@H](NC(=O)[C@H](CCCN=C(N)N)NC(=O)[C@@H](N)CCCNC(N)=O)c2ccc3ccccc3c2)CSSC[C@@H](C(=O)N[C@@H](CCCN=C(N)N)C(=O)O)NC(=O)[C@H](CCCNC(N)=O)NC(=O)[C@H](CCCN=C(N)N)NC(=O)[C@H](Cc2ccc(O)cc2)NC(=O)[C@@H]2CCCN2C(=O)[C@@H](CCCCN)NC1=O [Derivative of T140 peptide] | – | – | 37 nM
5 | NCCCC[C@@H]1NC(=O)[C@H](CCCN=C(N)N)NC(=O)[C@H](Cc2ccc(O)cc2)NC(=O)[C@@H](NC(=O)[C@@H](NC(=O)[C@H](CCCN=C(N)N)NC(=O)[C@@H](N)CCCNC(N)=O)c2ccc3ccccc3c2)CSSC[C@@H](C(=O)N[C@@H](CCCN=C(N)N)C(N)=O)NC(=O)[C@H](CCCNC(N)=O)NC(=O)[C@H](CCCN=C(N)N)NC(=O)[C@H](Cc2ccc(O)cc2)NC(=O)[C@@H]2CCCN2C(=O)[C@@H](CCCNC(N)=O)NC1=O [Derivative of T140 peptide] | – | – | 1.2 nM
6 | NCCCC[C@@H]1NC(=O)[C@H](CCCNC(N)=O)NC(=O)[C@H](Cc2ccc(O)cc2)NC(=O)[C@@H](NC(=O)[C@@H](NC(=O)[C@H](CCCN=C(N)N)NC(=O)[C@@H](N)CCCN=C(N)N)c2ccc3ccccc3c2)CSSC[C@@H](C(=O)N[C@@H](CCCN=C(N)N)C(N)=O)NC(=O)[C@H](CCCNC(N)=O)NC(=O)[C@H](CCCNC(N)=O)NC(=O)[C@H](Cc2ccc(O)cc2)NC(=O)[C@@H]2CCCN2C(=O)[C@@H](CCCCN)NC1=O [Derivative of T140 peptide] | – | – | 6.8 nM
7 | NCCCC[C@@H]1NC(=O)[C@H](CCCN=C(N)N)NC(=O)[C@H](Cc2ccc(O)cc2)NC(=O)[C@@H](NC(=O)[C@@H](NC(=O)[C@H](CCCN=C(N)N)NC(=O)[C@@H](N)CCCN=C(N)N)c2ccc3ccccc3c2)CSSC[C@@H](C(=O)N[C@@H](CCCN=C(N)N)C(N)=O)NC(=O)[C@H](CCCNC(N)=O)NC(=O)[C@H](CCCNC(N)=O)NC(=O)[C@H](Cc2ccc(O)cc2)NC(=O)[C@@H]2CCCN2C(=O)[C@@H](CCCNC(N)=O)NC1=O [Derivative of T140 peptide] | – | – | 2.7 nM
8 | NCCCC[C@@H]1NC(=O)[C@H](CCCNC(N)=O)NC(=O)[C@H](Cc2ccc(O)cc2)NC(=O)[C@@H](NC(=O)[C@@H](NC(=O)[C@H](CCCN=C(N)N)NC(=O)[C@@H](N)CCCN=C(N)N)c2ccc3ccccc3c2)CSSC[C@@H](C(=O)N[C@@H](CCCN=C(N)N)C(=O)O)NC(=O)[C@H](CCCNC(N)=O)NC(=O)[C@H](CCCNC(N)=O)NC(=O)[C@H](Cc2ccc(O)cc2)NC(=O)[C@@H]2CCCN2C(=O)[C@@H](CCCCN)NC1=O [Derivative of T140 peptide] | – | – | 8.9 nM
9 | NCCCC[C@@H]1NC(=O)[C@H](CCCN=C(N)N)NC(=O)[C@H](Cc2ccc(O)cc2)NC(=O)[C@@H](NC(=O)[C@@H](NC(=O)[C@H](CCCN=C(N)N)NC(=O)[C@@H](N)CCCNC(N)=O)c2ccc3ccccc3c2)CSSC[C@@H](C(=O)N[C@@H](CCCN=C(N)N)C(=O)O)NC(=O)[C@H](CCCNC(N)=O)NC(=O)[C@H](CCCNC(N)=O)NC(=O)[C@H](Cc2ccc(O)cc2)NC(=O)[C@@H]2CCCN2C(=O)[C@@H](CCCCN)NC1=O [Derivative of T140 peptide] | – | – | 68 nM
10 | NCCCC[C@@H]1NC(=O)[C@H](CCCN=C(N)N)NC(=O)[C@H](Cc2ccc(O)cc2)NC(=O)[C@@H](NC(=O)[C@@H](NC(=O)[C@H](CCCN=C(N)N)NC(=O)[C@@H](N)CCCN=C(N)N)c2ccc3ccccc3c2)CSSC[C@@H](C(=O)N[C@@H](CCCN=C(N)N)C(N)=O)NC(=O)[C@H](CCCNC(N)=O)NC(=O)[C@H](CCCN=C(N)N)NC(=O)[C@H](Cc2ccc(O)cc2)NC(=O)[C@@H]2CCCN2C(=O)[C@@H](CCCCN)NC1=O [Derivative of T140 peptide] | – | – | 72 nM
11 | NCCCC[C@@H]1NC(=O)[C@H](CCCNC(N)=O)NC(=O)[C@H](Cc2ccc(O)cc2)NC(=O)[C@@H](NC(=O)[C@@H](NC(=O)[C@H](CCCN=C(N)N)NC(=O)[C@@H](N)CCCN=C(N)N)c2ccc3ccccc3c2)CSSC[C@@H](C(=O)N[C@@H](CCCN=C(N)N)C(N)=O)NC(=O)[C@H](CCCNC(N)=O)NC(=O)[C@H](CCCN=C(N)N)NC(=O)[C@H](Cc2ccc(O)cc2)NC(=O)[C@@H]2CCCN2C(=O)[C@@H](CCCCN)NC1=O [Derivative of T140 peptide] | 12 nM | 0.6 nM | –
12 | NCCCC[C@@H]1NC(=O)[C@H](CCCN=C(N)N)NC(=O)[C@H](Cc2ccc(O)cc2)NC(=O)[C@@H](NC(=O)[C@@H](NC(=O)[C@H](CCCN=C(N)N)NC(=O)[C@@H](N)CCCNC(N)=O)c2ccc3ccccc3c2)CSSC[C@@H](C(=O)N[C@@H](CCCN=C(N)N)C(N)=O)NC(=O)[C@H](CCCNC(N)=O)NC(=O)[C@H](CCCNC(N)=O)NC(=O)[C@H](Cc2ccc(O)cc2)NC(=O)[C@@H]2CCCN2C(=O)[C@@H](CCCCN)NC1=O [Derivative of T140 peptide] | – | – | 40 nM
13 | NCCCC[C@@H]1NC(=O)[C@H](CCCN=C(N)N)NC(=O)[C@H](Cc2ccc(O)cc2)NC(=O)[C@@H](NC(=O)[C@@H](NC(=O)[C@H](CCCN=C(N)N)NC(=O)[C@@H](N)CCCNC(N)=O)c2ccc3ccccc3c2)CSSC[C@@H](C(=O)N[C@@H](CCCN=C(N)N)C(=O)O)NC(=O)[C@H](CCCNC(N)=O)NC(=O)[C@H](CCCN=C(N)N)NC(=O)[C@H](Cc2ccc(O)cc2)NC(=O)[C@@H]2CCCN2C(=O)[C@@H](CCCNC(N)=O)NC1=O [Derivative of T140 peptide] | – | – | 36 nM
14 | NCCCC[C@@H]1NC(=O)[C@H](CCCN=C(N)N)NC(=O)[C@H](Cc2ccc(O)cc2)NC(=O)[C@@H](NC(=O)[C@@H](NC(=O)[C@H](CCCN=C(N)N)NC(=O)[C@@H](N)CCCN=C(N)N)c2ccc3ccccc3c2)CSSC[C@@H](C(=O)N[C@@H](CCCN=C(N)N)C(=O)O)NC(=O)[C@H](CCCNC(N)=O)NC(=O)[C@H](CCCNC(N)=O)NC(=O)[C@H](Cc2ccc(O)cc2)NC(=O)[C@@H]2CCCN2C(=O)[C@@H](CCCNC(N)=O)NC1=O [Derivative of T140 peptide] | – | – | 7.8 nM
15 | NCCCC[C@@H]1NC(=O)[C@H](CCCNC(N)=O)NC(=O)[C@H](Cc2ccc(O)cc2)NC(=O)[C@@H](NC(=O)[C@@H](NC(=O)[C@H](CCCN=C(N)N)NC(=O)[C@@H](N)CCCN=C(N)N)c2ccc3ccccc3c2)CSSC[C@@H](C(=O)N[C@@H](CCCN=C(N)N)C(N)=O)NC(=O)[C@H](CCCNC(N)=O)NC(=O)[C@H](CCCN=C(N)N)NC(=O)[C@H](Cc2ccc(O)cc2)NC(=O)[C@@H]2CCCN2C(=O)[C@@H](CCCNC(N)=O)NC1=O [Derivative of T140 peptide] | 19 nM | 0.4 nM | –
16 | NCCCC[C@@H]1NC(=O)[C@H](CCCNC(N)=O)NC(=O)[C@H](Cc2ccc(O)cc2)NC(=O)[C@@H](NC(=O)[C@@H](NC(=O)[C@H](CCCN=C(N)N)NC(=O)[C@@H](N)CCCN=C(N)N)c2ccc3ccccc3c2)CSSC[C@@H](C(=O)N[C@@H](CCCN=C(N)N)C(=O)O)NC(=O)[C@H](CCCNC(N)=O)NC(=O)[C@H](CCCN=C(N)N)NC(=O)[C@H](Cc2ccc(O)cc2)NC(=O)[C@@H]2CCCN2C(=O)[C@@H](CCCCN)NC1=O [Derivative of T140 peptide] | 8 nM | 2.8 nM | –
17 | NCCCC[C@@H]1NC(=O)[C@H](CCCNC(N)=O)NC(=O)[C@H](Cc2ccc(O)cc2)NC(=O)[C@@H](NC(=O)[C@@H](NC(=O)[C@H](CCCN=C(N)N)NC(=O)[C@@H](N)CCCN=C(N)N)c2ccc3ccccc3c2)CSSC[C@@H](C(=O)N[C@@H](CCCN=C(N)N)C(=O)O)NC(=O)[C@H](CCCNC(N)=O)NC(=O)[C@H](CCCN=C(N)N)NC(=O)[C@H](Cc2ccc(O)cc2)NC(=O)[C@@H]2CCCN2C(=O)[C@@H](CCCNC(N)=O)NC1=O [Derivative of T140 peptide] | 51 nM | 0.5 nM | –
18 | NCCCC[C@@H]1NC(=O)[C@H](CCCN=C(N)N)NC(=O)[C@H](Cc2ccc(O)cc2)NC(=O)[C@@H](NC(=O)[C@@H](NC(=O)[C@H](CCCN=C(N)N)NC(=O)[C@@H](N)CCCN=C(N)N)c2ccc3ccccc3c2)CSSC[C@@H](C(=O)N[C@@H](CCCN=C(N)N)C(=O)O)NC(=O)[C@H](CCCNC(N)=O)NC(=O)[C@H](CCCN=C(N)N)NC(=O)[C@H](Cc2ccc(O)cc2)NC(=O)[C@@H]2CCCN2C(=O)[C@@H](CCCCN)NC1=O [Compound T140] | 10 nM | – | 3.3 nM
19 | NCCCC[C@@H]1NC(=O)[C@H](CCCN=C(N)N)NC(=O)[C@H](Cc2ccc(O)cc2)NC(=O)[C@@H](NC(=O)[C@@H](NC(=O)[C@H](CCCN=C(N)N)NC(=O)[C@@H](N)CCCN=C(N)N)c2ccc3ccccc3c2)CSSC[C@@H](C(=O)N[C@@H](CCCN=C(N)N)C(N)=O)NC(=O)[C@H](CCCNC(N)=O)NC(=O)[C@H](CCCN=C(N)N)NC(=O)[C@H](Cc2ccc(O)cc2)NC(=O)[C@@H]2CCCN2C(=O)[C@@H](CCCNC(N)=O)NC1=O [Derivative of T140 peptide] | 24 nM | 4.6 nM | –
